Reference: the supplement of paper PMC11208160

Experiment: recombinant UMI read abundance after kanamycin selection (control-corrected) (log10(CPM+1)); higher = more efficient recombination; extreme values may be limits of the assay; sequences stand for … in AGTGCAGAGAAAATCGGCCAGTTTTCTCTGCCTGCAGTCCGCATGCCGTGGGACCCCTTGGGTTCTAACCTGTTGCCTAGATTTATGCAGCGGACTGCCTTTCTCCCAAAGTGATAAACCGG…AGGTTGGTTTCACT; site = the 11-nt donor
In short: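 Each donor and donor-binding-loop pair was tracked by a 12-nt UMI on a plasmid carrying a promoterless kanamycin gene. With a second plasmid supplying a fixed target and T7-inducible IS621 bridge recombinase, the pool was plated in Escherichia coli on IPTG (0.07 mM) plus kanamycin or unselected. Sequencing of recombinant UMIs across the donor–target junction gave counts expressed as log10(CPM+1) after replicate averaging and control-derived scaling.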
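Note: IS621 bridge recombinase in Escherichia coli cells against a fixed T5 target plasmid.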

Sequence	recombinant UMI read abundance (log10)
GAATGGACATGGACCGGTTTTCCCGGTAATCCGTATTTGCA (site GAATGGCCTTG)	0.483
GAATGGACATGGACCGGTTTTCCCGGTAATCCGTATTTGCA (site GAATGGGCTTG)	2.41
GAATGGACATGGACCGGTTTTCCCGGTAATCCGTATTTGCA (site GAATGGTCTTG)	1.59
GAATGGCCATGGACCGGTTTTCCCGGTAATCCGTATTTGAA (site GAATGGCCTTA)	0.00888
GAATGGCCATGGACCGGTTTTCCCGGTAATCCGTATTTGAA (site GAATGGCCTTC)	0
GAATGGCCATGGACCGGTTTTCCCGGTAATCCGTATTTGAA (site GAATGGCCTTG)	0.0104
GAATGGCCATGGACCGGTTTTCCCGGTAATCCGTATTTGAA (site GAATGGCCTTT)	0.0109
GAATGGTCATGGACCGGTTTTCCCGGTAATCCGTATTTGCA (site GAATGGACTTG)	0.0076
GAATGGTCATGGACCGGTTTTCCCGGTAATCCGTATTTGCA (site GAATGGCCTTG)	0
GAATGGTCATGGACCGGTTTTCCCGGTAATCCGTATTTGCA (site GAATGGGCTTG)	0.00395
GAATGGTCATGGACCGGTTTTCCCGGTAATCCGTATTTGCA (site GAATGGTCTTG)	2.38
GAATTCCCATGGACCGGTTTTCCCGGTAATCCGTATTTGTA (site GAATTCCCTTA)	0.666
GAATTGACATGGACCGGTTTTCCCGGTAATCCGTATTTGAT (site GAATTGACTAT)	1.37
GAATTGCCATGGACCGGTTTTCCCGGTAATCCGTATTTGCA (site GAATAGCCTTG)	0
GAATTGCCATGGACCGGTTTTCCCGGTAATCCGTATTTGCA (site GAATCGCCTTG)	0
GAATTGCCATGGACCGGTTTTCCCGGTAATCCGTATTTGCA (site GAATGGCCTTG)	0.696

Sequence	recombinant UMI read abundance (log10)
GAATTGCCATGGACCGGTTTTCCCGGTAATCCGTATTTGCA (site GAATTGCCTTG)	0
GACAAATCATGGACCGGTTTTCCCGGTAATCCGTATTTGGT (site GACAAAACTAC)	0
GACAAATCATGGACCGGTTTTCCCGGTAATCCGTATTTGGT (site GACAAACCTAC)	0
GACAAATCATGGACCGGTTTTCCCGGTAATCCGTATTTGGT (site GACAAAGCTAC)	0.224
GACAAATCATGGACCGGTTTTCCCGGTAATCCGTATTTGGT (site GACAAATCTAC)	0.59
GACAATCCATGGACCGGTTTTCCCGGTAATCCGTATTTGGT (site GACAAACCTAC)	0
GACAATCCATGGACCGGTTTTCCCGGTAATCCGTATTTGGT (site GACAACCCTAC)	0.00483
GACAATCCATGGACCGGTTTTCCCGGTAATCCGTATTTGGT (site GACAAGCCTAC)	0.0115
GACAATCCATGGACCGGTTTTCCCGGTAATCCGTATTTGGT (site GACAATCCTAC)	0.0195
GACACGACATGGACCGGTTTTCCCGGTAATCCGTATTTGGG (site GACACGACTCC)	0.173
GACAGGGCATGGACCGGTTTTCCCGGTAATCCGTATTTGAT (site GACAGGGCTAT)	1.89
GACATCCCATGGACCGGTTTTCCCGGTAATCCGTATTTGAA (site GACATCCCTTT)	0.475
GACCAACCATGGACCGGTTTTCCCGGTAATCCGTATTTGGT (site GACAAACCTAC)	0
GACCAACCATGGACCGGTTTTCCCGGTAATCCGTATTTGGT (site GACCAACCTAC)	0.0426
GACCAACCATGGACCGGTTTTCCCGGTAATCCGTATTTGGT (site GACGAACCTAC)	0
GACCAACCATGGACCGGTTTTCCCGGTAATCCGTATTTGGT (site GACTAACCTAC)	0.00842
